How the values were obtained:
[1] = Solubility in DMSO; format: physicochemical; settings: order SJ-2<SJ-24<SJ-3<SJ-11
Source text: The solubility of the four compounds in DMSO is poor, SJ-2<SJ-24<SJ-3<SJ-11, and therefore it is estimated and this is the reason why the three compounds which have previously proven to be effective against PC-3 cell line by SRB assays are ineffective in this experiment.

[2] = test system: 60 cancer cell lines; assay: NCI five-dose level screening test, second stage (GI50, TGI, LC50); format: cell-based; settings: for Subpanel MID^b (average sensitivity of all cell line of a particular subpanel) / MID^a (average sensitivity of all cell line): GI50; for MID^a (average sensitivity of all cell line): all cell lines
Source text: From the results, compounds SJ-3 (NSC 772864) and SJ-10 (NSC 772862) were selected by NCI for a five-dose level screening test and the mean growth percentage of the 60 cancer cell lines for the two compounds are 62.4 and −14.37, respectively. […] A summary of the NCI data provides information on the inhibition effect of various compound in different cancer cell lines (FIGS. 3 to 16 and Tables 3 to 8). […] Table 9 indicates the GI50, TGI and LC50 of the NCI data of TC-XCl, SJ-3 and SJ-10 NCI.

[3] = Non-Small Cell Lung Cancer subpanel

SMILES	solubility in DMSO [1]	Selectivity ratio (MID^a:MID^b) ([2]; Breast Cancer subpanel)	Subpanel MID^b (average sensitivity of all cell line of a particular subpanel) ([2]; Breast Cancer subpanel) [µM]	Selectivity ratio (MID^a:MID^b) ([2]; CNS Cancer subpanel)	Subpanel MID^b (average sensitivity of all cell line of a particular subpanel) ([2]; CNS Cancer subpanel) [µM]	Selectivity ratio (MID^a:MID^b) ([2]; Colon Cancer subpanel)	Subpanel MID^b (average sensitivity of all cell line of a particular subpanel) ([2]; Colon Cancer subpanel) [µM]	Selectivity ratio (MID^a:MID^b) ([2]; Leukemia subpanel)	Subpanel MID^b (average sensitivity of all cell line of a particular subpanel) ([2]; Leukemia subpanel) [µM]	Selectivity ratio (MID^a:MID^b) ([2]; Melanoma subpanel)	Subpanel MID^b (average sensitivity of all cell line of a particular subpanel) ([2]; Melanoma subpanel) [µM]	Selectivity ratio (MID^a:MID^b) [2, 3]	Subpanel MID^b (average sensitivity of all cell line of a particular subpanel) [2, 3] [µM]	Selectivity ratio (MID^a:MID^b) ([2]; Ovarian Cancer subpanel)	Subpanel MID^b (average sensitivity of all cell line of a particular subpanel) ([2]; Ovarian Cancer subpanel) [µM]	Selectivity ratio (MID^a:MID^b) ([2]; Prostate Cancer subpanel)	Subpanel MID^b (average sensitivity of all cell line of a particular subpanel) ([2]; Prostate Cancer subpanel) [µM]	Selectivity ratio (MID^a:MID^b) ([2]; Renal Cancer subpanel)	Subpanel MID^b (average sensitivity of all cell line of a particular subpanel) ([2]; Renal Cancer subpanel) [µM]	MID^a (average sensitivity of all cell line) [2] [µM]
CN(C)c1nc2ccccc2c2c1-c1ccc(Cl)cc1C2=O [SJ-2, 9-Chloro-6-(dimethylamino)-11H-indeno[1,2-c]quinolin-11-one]	poor	–	–	–	–	–	–	–	–	–	–	–	–	–	–	–	–	–	–	–
CCN(CC)CCNc1nc2ccccc2c2c1-c1ccc(Cl)cc1C2=O [SJ-3, 6-(2-(Diethylamino)ethylamino)-9-chloro-11H-indeno[1,2-c]quinolin-11-one]	poor	1.159	12.345	0.962	14.875	0.778	18.400	1.475	9.696	0.914	15.654	1.210	11.819	0.820	17.448	0.914	15.650	1.124	12.733	14.306
O=C1c2cc(Cl)ccc2-c2c(N3CCNCC3)nc3ccccc3c21 [SJ-10, 9-Chloro-6-(piperazin-1-yl)-11H-indeno[1,2-c]quinolin-11-one]	–	1.541	6.813	1.304	8.053	1.075	9.763	0.954	11.000	0.528	19.894	1.621	6.477	0.772	13.591	1.959	5.360	1.648	6.370	10.498

— patent US20150197492A1, “NOVEL INDENO[1,2-c]QUINOLIN-11-ONE DERIVATIVES, PREPARATION METHOD AND APPLICATION THEREOF” (National Defense Medical Center, priority 2014, published 2015)
